From patent US20140303092A1 (CHIMERIX, INC., priority 2011, published 2014)

Test: Study HDP-CDV-201: safety and tolerability (adverse events, laboratory abnormalities, discontinuations)
Format: in vivo, human (adult allogeneic HSCT recipients)
Protocol: Clinical Studies of HDP-CDV were performed and described in detail in the following Examples. For example, HDP-CDV-201 is a placebo-controlled, dose-escalating trial in HSCT CMV (R+) recipients, evaluating the ability of HDP-CDV to prevent or control CMV infection was carried out. Five cohorts were established in which participants or subjects received either placebo or the HDP-CDV orally, in doses ranging from 40 mg weekly (QW) to 200 mg twice weekly (BIW). Subjects who were post-HSCT were enrolled at the time of engraftment and randomized to HDP-CDV or placebo (3 to 1 ratio) and received blinded therapy until approximately 100 day post-transplantation. HDP-CDV doses were 40 mg QW, 100 mg QW, 200 mg QW, 200 mg BIW and 100 mg BIW. Escalation to the next dose was decided by the data monitoring committee after review of the safety data from the previous Cohort. Subjects who developed CMV disease or CMV infection requiring pre-emptive therapy with local standard of care were discontinued from blinded therapy and followed for 4 weeks. Subjects who completed treatment with blinded therapy were followed for 8 weeks post-therapy.
Data from Study HDP-CDV-201 also provided characterization of the safety and tolerability profile of HDP-CDV when administered for the prevention or control of CMV infection in high risk (R^+) post-HSCT adult subjects.
The Safety population (SAFETY) included all randomized subjects who took at least one dose of study treatment. This population was used to summarize safety outcomes based on the treatment actually received, in cases where a subject was treated contrary to the randomization schedule.
The safety and tolerability profile of HDP-CDV, including subject demographics and Baseline characteristics; the AE profile; and laboratory abnormalities of interest were analyzed in the cohorts followed in this investigation.
Subjects completing the treatment period received a full course of study medication; those completing the entire study attended visits through 8 weeks of follow up. Subjects who discontinued treatment may have done so for protocol specified reasons (e.g. development of clinically significant CMV infection requiring preemptive treatment with excluded anti-CMV medications) or for other reasons (e.g., withdrawal, adverse events, loss to follow-up). The disposition of subjects in Study HDP-CDV-201 during the double-blind, placebo-controlled treatment period (through Week 11) is listed by dosing Cohort in TABLE 23.
Adverse events were examined by severity to ensure that all safety signals were identified in this study population. Because of the frequency of events in HSCT recipients, particular attention was given to evaluation of Grade 3 […], 4 (severe), and 5 (fatal) adverse events.
Only those preferred terms for which at least one Grade 3 or higher event was experienced in any treatment group are listed. Cytomegalovirus-related AEs are excluded from this analysis.
HDP-CDV is a lipid conjugate of CDV. Because CDV is known to have adverse effects on renal function and bone marrow, decreased GFR and persistent neutropenia were identified as AEs of special interest. Key renal and hematological (TABLE 30) laboratory parameters were measured and listed below by Study HDP-CDV-201 treatment groups. TABLE 30 includes abnormal levels of serum creatinine, neutrophils, platelets, WBCs, and hemoglobin and includes data at Screening and during the treatment period.
A common metric for unit based dosing of medications is by weight (mg/kg). When the distribution of weights was examined for all subjects participating in the study, the median was 78 kg and the lower 25th percentile weight was approximately 65 kg, which translates to a cut-off of ˜3 mg/kg for a 200 mg total weekly dose. Based upon this approach, a cut-off of 3 mg/kg was used to assess the frequency of diarrhea and associated GI AEs reported for the subjects in Cohorts 3 or 4a (TABLE 40).

SMILES: CCCCCCCCCCCCCCCCOCCCOP(=O)(O)COC(CO)Cn1ccc(N)nc1=O (stereo not drawn) [HDP-CDV]
- TEAE Staphylococcal Bacteremia, Grade 4 (200 mg BIW): 0
- TEAE Staphylococcal Bacteremia, Grade 5 (200 mg BIW): 0
- TEAE Thrombocytopenia, Frequency (200 mg BIW): 5 (16.7%)
- TEAE Thrombocytopenia, Grade 2 (200 mg BIW): 2 (6.7%)
- TEAE Thrombocytopenia, Grade 3 (200 mg BIW): 0
- TEAE Thrombocytopenia, Grade 4 (200 mg BIW): 3 (10.0%)
- TEAE Thrombocytopenia, Grade 5 (200 mg BIW): 0
- TEAE Vomiting, Frequency (200 mg BIW): 8 (26.7%)
- TEAE Vomiting, Grade 2 (200 mg BIW): 4 (13.3%)
- TEAE Vomiting, Grade 3 (200 mg BIW): 0
- TEAE Vomiting, Grade 4 (200 mg BIW): 0
- TEAE Vomiting, Grade 5 (200 mg BIW): 0
- subjects requiring treatment with steroids during the study (200 mg BIW): 83%
- proportion of subjects with Grade 3 or higher ALT (>5×ULN) (200 mg BIW (8 of 30)): 27.6%
- dose limiting toxicity (200 mg BIW not tolerable): Diarrhea
- Subjects Reporting Diarrhea as an AE (200 mg BIW, n = 30): 21 (70.0%)
- Discontinuation: Death (200 mg BIW, active treatment period): 3 (10%) Subject n (%)
- Discontinuation: Adverse event (200 mg BIW, active treatment period through Week 11): 13 (43.3%) Subject n (%)
- TEAE ALT increased, Frequency (200 mg QW): 2 (5.1%)
- TEAE ALT increased, Grade 2 (200 mg QW): 1 (2.6%)
- TEAE ALT increased, Grade 3 (200 mg QW): 1 (2.6%)
- TEAE ALT increased, Grade 4 (200 mg QW): 0
- TEAE ALT increased, Grade 5 (200 mg QW): 0
- TEAE AML, Recurrent, Frequency (200 mg QW): 0
- TEAE AML, Recurrent, Grade 2 (200 mg QW): 0
- TEAE AML, Recurrent, Grade 3 (200 mg QW): 0
- TEAE AML, Recurrent, Grade 4 (200 mg QW): 0
- TEAE AML, Recurrent, Grade 5 (200 mg QW): 0
- TEAE AST increased, Frequency (200 mg QW): 1 (2.6%)
- TEAE AST increased, Grade 2 (200 mg QW): 1 (2.6%)
- TEAE AST increased, Grade 3 (200 mg QW): 0
- TEAE AST increased, Grade 4 (200 mg QW): 0
- TEAE AST increased, Grade 5 (200 mg QW): 0
- TEAE Abdominal pain, Frequency (200 mg QW): 5 (12.8%)
- TEAE Abdominal pain, Grade 2 (200 mg QW): 1 (2.6%)
- TEAE Abdominal pain, Grade 3 (200 mg QW): 1 (2.6%)
- TEAE Abdominal pain, Grade 4 (200 mg QW): 0
- TEAE Abdominal pain, Grade 5 (200 mg QW): 0
- TEAE Acute GVHD, Frequency (200 mg QW): 13 (33.3%)
- TEAE Acute GVHD, Grade 2 (200 mg QW): 5 (12.8%)
- TEAE Acute GVHD, Grade 3 (200 mg QW): 4 (10.3%)
- TEAE Acute GVHD, Grade 4 (200 mg QW): 2 (5.1%)
- TEAE Acute GVHD, Grade 5 (200 mg QW): 1(2.6%)
- TEAE Arthralgias, Frequency (200 mg QW): 1 (2.6%)
- TEAE Arthralgias, Grade 2 (200 mg QW): 0
- TEAE Arthralgias, Grade 3 (200 mg QW): 0
- TEAE Arthralgias, Grade 4 (200 mg QW): 0
- TEAE Arthralgias, Grade 5 (200 mg QW): 0
- TEAE Back Pain, Frequency (200 mg QW): 2 (5.1%)
- TEAE Back Pain, Grade 2 (200 mg QW): 2 (5.1%)
- TEAE Back Pain, Grade 3 (200 mg QW): 0
- TEAE Back Pain, Grade 4 (200 mg QW): 0
- TEAE Back Pain, Grade 5 (200 mg QW): 0
- TEAE Decreased appetite, Frequency (200 mg QW): 3 (7.7%)
- TEAE Decreased appetite, Grade 2 (200 mg QW): 1 (2.6%)
- TEAE Decreased appetite, Grade 3 (200 mg QW): 0
- TEAE Decreased appetite, Grade 4 (200 mg QW): 0
- TEAE Decreased appetite, Grade 5 (200 mg QW): 0
- TEAE Diarrhea, Frequency (200 mg QW): 13 (33.3%)
- TEAE Diarrhea, Grade 2 (200 mg QW): 5 (12.8%)
- TEAE Diarrhea, Grade 3 (200 mg QW): 2 (5.1%)
- TEAE Diarrhea, Grade 4 (200 mg QW): 0
- TEAE Diarrhea, Grade 5 (200 mg QW): 0
- TEAE Fatigue, Frequency (200 mg QW): 5 (12.8%)
- TEAE Fatigue, Grade 2 (200 mg QW): 0
- TEAE Fatigue, Grade 3 (200 mg QW): 1 (2.6%)
- TEAE Fatigue, Grade 4 (200 mg QW): 0
- TEAE Fatigue, Grade 5 (200 mg QW): 0
- TEAE GGT Increased, Frequency (200 mg QW): 0
- TEAE GGT Increased, Grade 2 (200 mg QW): 0
- TEAE GGT Increased, Grade 3 (200 mg QW): 0
- TEAE GGT Increased, Grade 4 (200 mg QW): 0
- TEAE GGT Increased, Grade 5 (200 mg QW): 0
- TEAE Generalized oedema, Frequency (200 mg QW): 0
- TEAE Generalized oedema, Grade 2 (200 mg QW): 0
- TEAE Generalized oedema, Grade 3 (200 mg QW): 0
- TEAE Generalized oedema, Grade 4 (200 mg QW): 0
- TEAE Generalized oedema, Grade 5 (200 mg QW): 0
- TEAE Hyperbilirubinaemia, Frequency (200 mg QW): 3 (7.7%)
- TEAE Hyperbilirubinaemia, Grade 2 (200 mg QW): 1 (2.6%)
- TEAE Hyperbilirubinaemia, Grade 3 (200 mg QW): 0
- TEAE Hyperbilirubinaemia, Grade 4 (200 mg QW): 1 (2.6%)
- TEAE Hyperbilirubinaemia, Grade 5 (200 mg QW): 0
- TEAE Hyperglycaemia, Frequency (200 mg QW): 1 (2.6%)
- TEAE Hyperglycaemia, Grade 2 (200 mg QW): 0
- TEAE Hyperglycaemia, Grade 3 (200 mg QW): 1 (2.6%)
- TEAE Hyperglycaemia, Grade 4 (200 mg QW): 0
- TEAE Hyperglycaemia, Grade 5 (200 mg QW): 0
- TEAE Hyperkalemia, Frequency (200 mg QW): 1 (2.6%)
- TEAE Hyperkalemia, Grade 2 (200 mg QW): 0
- TEAE Hyperkalemia, Grade 3 (200 mg QW): 0
- TEAE Hyperkalemia, Grade 4 (200 mg QW): 0
- TEAE Hyperkalemia, Grade 5 (200 mg QW): 0
- TEAE Hypocalcaemia, Frequency (200 mg QW): 0
- TEAE Hypocalcaemia, Grade 2 (200 mg QW): 0
- TEAE Hypocalcaemia, Grade 3 (200 mg QW): 0
- TEAE Hypocalcaemia, Grade 4 (200 mg QW): 0
- TEAE Hypocalcaemia, Grade 5 (200 mg QW): 0
- TEAE Hypokalaemia, Frequency (200 mg QW): 5 (12.8%)
- TEAE Hypokalaemia, Grade 2 (200 mg QW): 2 (5.1%)
- TEAE Hypokalaemia, Grade 3 (200 mg QW): 0
- TEAE Hypokalaemia, Grade 4 (200 mg QW): 0
- TEAE Hypokalaemia, Grade 5 (200 mg QW): 0
- TEAE Hyponatraemia, Frequency (200 mg QW): 7 (17.9%)
- TEAE Hyponatraemia, Grade 2 (200 mg QW): 2 (5.1%)
- TEAE Hyponatraemia, Grade 3 (200 mg QW): 2 (5.1%)
- TEAE Hyponatraemia, Grade 4 (200 mg QW): 0
- TEAE Hyponatraemia, Grade 5 (200 mg QW): 0
- TEAE LFT Abnormal, Frequency (200 mg QW): 2 (5.1%)
- TEAE LFT Abnormal, Grade 2 (200 mg QW): 0
- TEAE LFT Abnormal, Grade 3 (200 mg QW): 0
